Laboratory results: US20230159445A1, “STAT INHIBITORY COMPOUNDS AND COMPOSITIONS” (JANPIX LIMITED, priority 2020, published 2023)

Test system: MV4-11 cells
Experiment: MV4-11 Cell Cytotoxicity Assay (CellTiter-Blue, 72 h)
Type: cell-based, human
Settings: Homo sapiens, MV4-11; MV-4-11 cells
Description: In some embodiments, the potency of the STAT5 inhibitors are evaluated by an in vitro assay such as MV4-11 Cell Cytotoxicity Assay. […] 10,000 cells were plated per well in 96-well flat-bottom sterile culture plates with low-evaporation lids. After 24 h, inhibitors and a vehicle control (0.5% DMSO) were added and the cells were incubated for 72 h at 37° C. in 5% CO2. Inhibitors were examined in triplicate at a maximal concentration of 50 μM, followed by 1:2 dilutions in subsequent wells (25, 12.5, 6.25, 3.125, 1.5625, 0.78125, 0.390625, 0.195313 and 0.097656 μM). After 72 h, the wells were treated with CellTiter-Blue® (20 μL/well), and the plates were incubated using standard cell culture conditions for 1 hour. Fluorescence was measured at 560/590 nm.

Compound	IC50 [µM]
CC(C)(C)c1cc(CN(C(=O)CN(Cc2ccc(Cl)cc2)S(=O)(=O)c2c(F)c(F)c(F)c(F)c2F)c2cc(O)cc(O)c2)cc(C2CC2)c1 [Compound 1030, N-(3-(tert-butyl)-5-cyclopropylbenzyl)-2-(N-(4-chlorobenzyl)-(2,3,4,5,6-pentafluorophenyl)sulfonamido)-N-(3,5-dihydroxyphenyl) acetamide]	3.16 to 100
COC(=O)C(C)(C)c1ccc(N(Cc2cc(C3CC3)cc(C(C)(C)C)c2)C(=O)CN(Cc2ccc(Cl)cc2)S(=O)(=O)c2c(F)c(F)c(F)c(F)c2F)cc1 [Compound 1042, methyl 2-(4-(N-(3-(tert-butyl)-5-cyclopropylbenzyl)-2-(N-(4-chlorobenzyl)-(2,3,4,5,6-pentafluorophenyl)sulfon-amido)acetamido)phenyl)-2-methylpropanoate]	3.16 to 100
COc1cc(CN(CC(=O)N(Cc2cc(C3CC3)cc(C(C)(C)C)c2)c2ccc(C(=O)O)c(O)c2)S(=O)(=O)c2c(F)c(F)c(F)c(F)c2F)ccc1F [Compound 1028, 4-(N-(3-(tert-butyl)-5-cyclopropylbenzyl)-2-(N-(4-fluoro-3-methoxybenzyl)-(2,3,4,5,6-pentafluoro-phenyl)sulfonamido)acetamido)-2-hydroxybenzoic acid]	1 to 3.16
CC(C)(C)c1cc(CN(C(=O)CN(Cc2cccc(C(F)(F)F)c2)S(=O)(=O)c2c(F)c(F)c(F)c(F)c2F)c2ccc(C(=O)O)cc2OC2CC2)cc(C2CC2)c1 [Compound 1135, 4-(N-(3-(tert-butyl)-5-cyclopropylbenzyl)-2-(N-(3-(trifluoromethyl)benzyl)-(2,3,4,5,6-pentafluoro-phenyl)sulfonamido)acetamido)-3-cyclopropoxybenzoic acid]	0.316 to 1
Cc1cc(C(=O)O)cc(C)c1N(Cc1cc(C2CC2)cc(N2CCCC2)c1)C(=O)CN(Cc1ccc(F)cc1Cl)S(=O)(=O)c1c(F)c(F)c(F)c(F)c1F [Compound 1206, 4-(2-(N-(2-chloro-4-fluorobenzyl)-(2,3,4,5,6-pentafluorophenyl)sulfon-amido)-N-(3-cyclopropyl-5-(pyrrolidin-1-yl)benzyl)acetamido)-3,5-dimethylbenzoic acid]	0.316 to 1
Cc1cc(C(=O)O)cc(C)c1N(Cc1cc(C2CC2)cc(C2CC2)c1)C(=O)CN(Cc1cnccc1C(F)(F)F)S(=O)(=O)c1c(F)c(F)c(F)c(F)c1F [Compound 1202, 4-(N-(3,5-dicyclopropylbenzyl)-2-(N-((4-(trifluoromethyl)pyridin-3-yl)methyl)-(2,3,4,5,6-pentafluoro-phenyl)sulfonamido)acetamido)-3,5-dimethylbenzoic acid]	0.316 to 1
CC(C)(C)c1cc(CN(C(=O)CN(Cc2cccnc2)S(=O)(=O)c2c(F)c(F)c(F)c(F)c2F)c2ccc(C(=O)O)c(O)c2)cc(C2CC2)c1 [Compound 1013, 4-(N-(3-(tert-butyl)-5-cyclopropylbenzyl)-2-(N-(pyridin-3-ylmethyl)-(2,3,4,5,6-pentafluoro-phenyl)sulfonamido)acetamido)-2-hydroxybenzoic acid]	3.16 to 100
COc1cccc(CN(CC(=O)N(Cc2cc(C3CC3)cc(C(C)(C)C)c2)c2ccc(C(=O)O)c(O)c2)S(=O)(=O)c2c(F)c(F)c(F)c(F)c2F)c1 [Compound 1038, 4-(N-(3-(tert-butyl)-5-cyclopropylbenzyl)-2-(N-(3-methoxybenzyl)-(2,3,4,5,6-pentafluoro-phenyl)sulfonamido)acetamido)-2-hydroxybenzoic acid]	3.16 to 100
CC(C)(C)c1cc(CN(C(=O)CN(Cc2ccc(C#N)cc2)S(=O)(=O)c2c(F)c(F)c(F)c(F)c2F)c2ccc(C(=O)O)cc2OC2CC2)cc(C2CC2)c1 [Compound 1140, 4-(N-(3-(tert-butyl)-5-cyclopropylbenzyl)-2-(N-(4-cyanobenzyl)-(2,3,4,5,6-pentafluorophenyl)sulfon-amido)acetamido)-3-cyclopropoxybenzoic acid]	0.316 to 1
COc1ccc(CN(CC(=O)N(Cc2cc(C3CC3)cc(C(C)(C)C)c2)c2ccc(C(=O)O)c(O)c2)S(=O)(=O)c2c(F)c(F)c(F)c(F)c2F)cc1 [Compound 1026, 4-(N-(3-(tert-butyl)-5-cyclopropylbenzyl)-2-(N-(4-methoxybenzyl)-(2,3,4,5,6-pentafluoro-phenyl)sulfonamido)acetamido)-2-hydroxybenzoic acid]	3.16 to 100
CC(C)(C)c1cc(CN(C(=O)CN(Cc2ccc(F)cc2Cl)S(=O)(=O)c2c(F)c(F)c(F)c(F)c2F)c2ccc(C(=O)O)c(C(F)(F)F)c2)cc(C2CC2)c1 [Compound 1229, 4-(N-(3-(tert-butyl)-5-cyclopropylbenzyl)-2-(N-(2-chloro-4-fluorobenzyl)-(2,3,4,5,6-pentafluorophenyl)sulfon-amido)acetamido)-2-(trifluoromethyl) benzoic acid]	1 to 3.16

Same assay, conditions: Homo sapiens; MV4-11 cells, 72 h, CellTiter-Blue; read-out: IC50- MV-4-11

Compound	IC50 [µM]
COc1cc(C(=O)O)ccc1N(C)C(=O)CN(Cc1ccccc1C(F)(F)F)S(=O)(=O)c1c(F)c(F)c(F)c(F)c1F [Compound 2018, 3-methoxy-4-(N-methyl-2-(N-(2-(trifluoromethyl)benzyl)-(2,3,4,5,6-pentafluoro-phenyl)sulfonamido)acetami-do)benzoic acid]	1 to 3.16
CC1(C)OC(=O)c2ccc(N(Cc3cc(C4CC4)cc(C(C)(C)C)c3)C(=O)CN(Cc3ccc(Cl)cc3)S(=O)(=O)c3c(F)c(F)c(F)c(F)c3F)cc2O1 [Compound 2022, N-(3-(tert-butyl)-5-cyclopropylbenzyl)-2-(N-(4-chlorobenzyl)-(2,3,4,5,6-pentafluorophenyl)sulfon-amido)-N-(2,2-dimethyl-4-oxo-4H-benzo[d][1,3]dioxin-7-yl)acetamide]	3.16 to 100
O=C(O)c1ccc(N(Cc2cc(OCC(F)(F)F)cc(OCC(F)(F)F)c2)C(=O)CN(Cc2ccc(Cl)cc2)S(=O)(=O)c2c(F)c(F)c(F)c(F)c2F)cc1O [Compound 2009, 4-(N-(3,5-bis(2,2,2-trifluoroethoxy)benzyl)-2-(N-(4-chlorobenzyl)-(2,3,4,5,6-pentafluorophenyl)sulfon-amido)acetamido)-2-hydroxybenzoic acid]	3.16 to 100
CC(C)(C)c1cc(C(=O)N(CCN(Cc2ccc(Cl)cc2)S(=O)(=O)c2c(F)c(F)c(F)c(F)c2F)c2ccc(C(=O)O)cc2)cc(C(C)(C)C)c1 [Compound 2005, 4-(3,5-di-tert-butyl-N-(2-(N-(4-chlorobenzyl)-(2,3,4,5,6-pentafluorophenyl)sulfon-amido)ethyl)benzamido)ben-zoic acid]	0.316 to 1
CC(C)(C)c1cc(N(C(=O)CN(Cc2ccc(Cl)cc2)S(=O)(=O)c2c(F)c(F)c(F)c(F)c2F)c2ccc(C(=O)O)c(O)c2)cc(C(C)(C)C)c1 [Compound 2014, 4-(2-(N-(4-chlorobenzyl)-(2,3,4,5,6-pentafluorophenyl)sulfon-amido)-N-(3,5-di-tert-butylphenyl)acetamido)-2-hydroxybenzoic acid]	1 to 3.16

Same assay, conditions: MV-4-11 cells

Compound	IC50 [µM]
COc1cc(C(=O)O)ccc1N(Cc1cc(C2CC2)cc(C2CC2)c1)C(=O)CN(Cc1ncc(F)cc1Cl)S(=O)(=O)c1c(F)c(F)c(F)c(F)c1F [Compound 1176, 4-(2-(N-((3-chloro-5-fluoropyridin-2-yl)methyl)-(2,3,4,5,6-pentafluorophenyl)sulfon-amido)-N-(3,5-dicyclopropylbenzyl)acetamido)-3-methoxybenzoic acid]	1e-05 to 0.316
